According to patent US20090030015A1, “NOVEL MULTI-CYCLIC COMPOUNDS” (REVOTAR BIOPHARMACEUTICALS AG, priority 2005, published 2009):

How the values were obtained:
[1] = target: T1, human L-Selectin-IgG-chimera (Homo sapiens, UniProt P14151); assay: Sialyl Lewis X Tyrosine Sulfate Assay (sLex TSA), L-selectin; type: binding; settings: sLexTSA
T1 construct: fused on or other part: human IgG Fc part, captured on the plate by goat anti human Fc antibody; a tag, no second protein
T1 sequence (P14151 39-318 limits assumed): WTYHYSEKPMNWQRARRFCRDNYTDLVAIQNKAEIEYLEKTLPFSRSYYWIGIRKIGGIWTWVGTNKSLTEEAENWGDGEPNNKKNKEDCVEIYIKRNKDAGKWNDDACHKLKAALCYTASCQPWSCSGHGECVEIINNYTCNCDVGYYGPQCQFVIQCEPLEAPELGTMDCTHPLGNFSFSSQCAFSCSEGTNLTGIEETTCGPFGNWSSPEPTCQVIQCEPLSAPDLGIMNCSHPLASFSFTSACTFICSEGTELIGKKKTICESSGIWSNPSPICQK
Method: (§1) Sialyl Lewis^X Tyrosine Sulfate Assay (sLe^x TSA):
(§2) Compounds of the present invention are assayed on a molecular level for their ability to inhibit the binding of P-, L-, or E-selectin chimeric molecules to sLe^x and tyrosinesulfate residues linked to a polymeric matrix as a PSGL-1 substitute. Selected IC50-values are determined.
(§3) Microtiter plates are coated overnight in carbonate buffer pH9.6 with goat anti human Fc mAB (10 μg/ml). After washing in assay buffer (25 mM 4-(2-hydroxyethyl)-1-piperazineethanesulfonic acid (HEPES), 150 mM NaCl, 1 mM CaCl2 pH7.4) and blocking (3% bovine serum albumin (BSA) in assay buffer) plates are incubated for 2 h at 37° C. with human P-Selectin-IgG-chimera (0.61 nM respectively 150 ng/mL) or human L-Selectin-IgG-chimera (0.61 nM respectively 89 ng/mL) or human E-Selectin-IgG-chimera (0.61 nM respectively 131 ng/mL). 5 μl of sLe^x-tyrosine sulfate polyacrylamide (1 mg/ml) carrying 15% sLe^x, 10% Tyrosine-sulfate and 5% biotin is complexed with 20 μl Streptavidin-Peroxidase solution (1 mg/ml) and 25 μl assay buffer without CaCl2. For use in the assay, the ligand complex is diluted 1:10000 in assay buffer and further diluted 1:1 with varying amounts of compounds in assay buffer incl. 2% DMSO. This mixture is added to the wells precoated with E- or P-selectin. After incubation for 2 h at 37° C., wells are washed for six times with in assay buffer incl. 0.005% Polyoxyethylenesorbitan monolaurate (TWEEN 20), developed for 10-15 min with 20 μl 3,3′,5,5′-tetramethylbenzidine (TMB)/H2O2 substrate solution and stopped with 20 μl 1M H2SO4. Bound sLe^x-Tyrosine sulfate ligand complex is determined by measuring optical density at 450 nm vs. 620 nm in a Fusion alpha-FP reader (sold from Packard Bioscience, Dreieich, Germany).

[2] = tested on: human E-selectin-IgG chimera; assay: Flow chamber assay, cell adhesion and rolling under flow conditions, E-selectin; type: cell-based; settings: normalized ratio of %-inhibition of compound divided by %-inhibition of bimosiamose; 125 μM compound; HL-60 cells; flow shear 1 dyne/cm^2
Method: (§4) Flow Chamber Assay/Cell Adhesion and Rolling Under Flow Conditions
(§5) To assess the capability of compounds to inhibit cell binding under dynamic conditions resembling the flow in a blood vessel, flow chamber assays addressing/testing binding of HL-60 cells/various cell lines to P-selectin, L-selectin and E-selectin chimeric molecules are performed.
(§6) Cell attachment under flow conditions is determined using a parallel flow chamber system. A 35 mm polystyrene culture dish is coated for 1 hour at room temperature with coating buffer (50 mM tris-(hydroxymethyl)aminomethane buffer (Tris), 150 mM NaCl, 2 mM CaCl2; pH 7.4) containing human E- or P-selectin-IgG chimera at concentrations of 2.5 μg/ml or 10 μg/ml, respectively. After removal of the coating solution non specific binding sites are blocked for an additional hour with 1% BSA in coating buffer at room temperature. After washing with assay buffer (“Roswell Park Memorial Institute 1640” (RPMI 1640)+10 mM HEPES) the dish is fitted into a parallel plate laminar flow chamber (sold from Glycotech, Rockville, Md.) and mounted on an inverted phase-contrast microscope (sold from Olympus, Hamburg, Germany) equipped with a CCD camera (JVC) that is connected to a PC. Employing a peristaltic pump (sold from Ismatec, Wertheim-Mondfeld, Germany) the re-circulating system is equilibrated with assay buffer containing 125 μM compound or vehicle control (DMSO). Cells (1 million/ml) are added to the chamber and allowed to distribute for 2 minutes at a high flow rate. The flow rate is then decreased resulting in a calculated flow shear of 1 dyne/cm^2. Video sequences of 10 low power fields are digitally recorded after 5 minutes continuous flow. The percentage of inhibition is calculated from the mean number of cells per field that attached to the coated dish surface in the presence versus absence of compound […].

[3] = tested on: human P-selectin-IgG chimera; assay: Flow chamber assay, cell adhesion and rolling under flow conditions, P-selectin; type: cell-based; settings: normalized ratio of %-inhibition of compound divided by %-inhibition of bimosiamose; 125 μM compound; HL-60 cells; flow shear 1 dyne/cm^2
Method: as §4, §5, §6

[4] = target: T2, human P-Selectin-IgG-chimera (Homo sapiens, UniProt P16109); assay: Sialyl Lewis X Tyrosine Sulfate Assay (sLex TSA), P-selectin; type: binding; settings: sLexTSA
T2 sequence (P16109 42-771 limits assumed): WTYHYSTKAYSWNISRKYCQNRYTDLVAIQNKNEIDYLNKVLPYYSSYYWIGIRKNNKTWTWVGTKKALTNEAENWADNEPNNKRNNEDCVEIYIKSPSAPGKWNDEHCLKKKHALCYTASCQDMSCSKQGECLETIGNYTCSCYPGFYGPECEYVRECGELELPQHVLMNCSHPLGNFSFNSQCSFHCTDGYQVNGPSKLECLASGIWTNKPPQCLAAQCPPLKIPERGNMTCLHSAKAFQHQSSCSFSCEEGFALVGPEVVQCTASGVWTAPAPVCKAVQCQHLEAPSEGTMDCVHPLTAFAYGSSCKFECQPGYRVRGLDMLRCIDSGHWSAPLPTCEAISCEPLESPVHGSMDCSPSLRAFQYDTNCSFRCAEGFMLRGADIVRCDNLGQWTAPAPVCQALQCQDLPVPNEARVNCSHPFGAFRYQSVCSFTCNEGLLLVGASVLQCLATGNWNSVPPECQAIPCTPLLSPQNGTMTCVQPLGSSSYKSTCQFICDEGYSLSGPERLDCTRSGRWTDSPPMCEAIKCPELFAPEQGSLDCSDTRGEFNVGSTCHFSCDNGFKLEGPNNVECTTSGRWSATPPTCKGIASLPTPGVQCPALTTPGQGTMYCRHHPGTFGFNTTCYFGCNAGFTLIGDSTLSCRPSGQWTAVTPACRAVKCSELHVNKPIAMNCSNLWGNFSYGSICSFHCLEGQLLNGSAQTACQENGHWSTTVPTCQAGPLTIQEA
Method: as §1, §2, §3

SMILES	IC50 [1] [µM]	E-Selectin [Ratio] [2] [Ratio]	P-Selectin [Ratio] [3] [Ratio]	IC50 [4] [µM]
O=C(O)Cc1cccc(-c2cc(CCCCCCc3ccc(O[C@H]4O[C@H](CO)[C@@H](O)[C@H](O)[C@@H]4O)c(-c4cccc(CC(=O)O)c4)c3)ccc2O[C@H]2O[C@H](CO)[C@@H](O)[C@H](O)[C@@H]2O)c1 [Bimosiamose, bimosiamose, reference compound]	> 500			
Cc1oc(-c2ccc(NC(=O)Cc3ccc(O)cc3O)cc2)cc1C(=O)O [Compound 29, 5-{4-[2-(2,4-Dihydroxy-phenyl)-acetylamino]-phenyl}-2-methyl-furan-3-carboxylic acid]		1.31	0.74	
Cc1oc(-c2ccc(NC(=O)Cc3cc(O)cc(O)c3)cc2)cc1C(=O)O [Compound 31, 5-{4-[2-(3,5-Dihydroxy-phenyl)-acetylamino]-phenyl}-2-methyl-furan-3-carboxylic acid]		1.16	0.60	
COC(=O)Cc1ccc(-c2ccccc2NC(=O)c2cncc(-c3ccc(O)cc3O)c2)s1 [Compound 74, [5-(2-{[5-(2,4-Dihydroxy-phenyl)-pyridine-3-carbonyl]-amino}-phenyl)-thiophen-2-yl]-acetic acid methyl ester]		0.68	1.02	
O=C(O)c1cccc(NC(=O)c2cccc(-c3ccc(O)cc3O)c2)c1 [Compound 79, 3-[(2′,4′-Dihydroxy-biphenyl-3-carbonyl)-amino]-benzoic acid]		0.96	1.19	
O=C(O)Cc1ccc(-c2ccccc2NC(=O)c2cccc(-c3cc(O)cc(O)c3)c2)s1 [Compound 82, (5-{2-[(3′,5′-Dihydroxy-biphenyl-3-carbonyl)-amino]-phenyl}-thiophen-2-yl)-acetic acid]		1.35	2.11	
O=C(Nc1ccccc1-c1ccc(C(=O)O)s1)c1cccc(-c2cc(O)cc(O)c2)c1 [Compound 85, 5-{2-[(3′,5′-Dihydroxy-biphenyl-3-carbonyl)-amino]-phenyl}-thiophene-2-carboxylic acid]		1.20	1.90	
O=C(Nc1ccccc1-c1cccs1)c1cccc(-c2ccc(O)cc2O)c1 [Compound 87, 2′,4′-Dihydroxy-biphenyl-3-carboxylic acid (2-thiophen-2-yl-phenyl)-amide]		1.24	1.05	
COc1ccc(-c2cccc(C(=O)Nc3cccc(-c4ccc(CC(=O)O)s4)c3)c2)c(OC)c1 [Compound 89, (5-{3-[(2′,4′-Dimethoxy-biphenyl-3-carbonyl)-amino]-phenyl}-thiophen-2-yl)-acetic acid]		1.27	1.41	
O=C(O)Cc1ccc(-c2cccc(NC(=O)c3cccc(-c4ccc(O)cc4O)c3)c2)s1 [Compound 90, (5-{3-[(2′,4′-Dihydroxy-biphenyl-3-carbonyl)-amino]-phenyl}-thiophen-2-yl)-acetic acid]	38.7			19.1
Cc1oc(-c2ccc(NC(=O)c3cccc(-c4ccc(O)cc4O)c3)nc2)cc1C(=O)O [Compound 93, 5-{6-[(2′,4′-Dihydroxy-biphenyl-3-carbonyl)-amino]-pyridin-3-yl}-2-methyl-furan-3-carboxylic acid]		0.86	1.13	
Cc1oc(-c2ccc(NC(=O)c3cccc(-c4ccc(O)cc4O)c3)cc2)cc1C(=O)O [Compound 96, 5-{4-[(2′,4′-Dihydroxy-biphenyl-3-carbonyl)-amino]-phenyl}-2-methyl-furan-3-carboxylic acid]		1.13	1.02	
O=C(Nc1cccc(C(F)(F)F)c1)c1cccc(-c2ccc(O)cc2O)c1 [Compound 98, 2′,4′-Dihydroxy-biphenyl-3-carboxylic acid (3-trifluoromethyl-phenyl)-amide]		1.26	1.00	
